# What was measured:
# embryonic tibiae = assay: Bone explant culture of embryonic tibiae; design: species or system mouse; conditions: for longitudinal length of embryonic tibiae with FGF2: FGF2 100 ng/ml, day 6, meclizine 20 μM, CNP 0.2 μM
# Procedure: For bone explant culture, tibiae were dissected under the microscope from wild-type mouse embryos on E16.5, placed in 96-well plates, and cultured in α-minimal essential medium (Invitrogen) supplemented with 0.2% bovine serum albumin, 1 mM β-glycerophosphate, and 50 μg/ml ascorbic acid. Embryonic tibiae were further treated with 100 ng/ml FGF2 in the presence or absence of 20 μM meclizine or 0.2 μM CNP for 6 days, then fixed in 10% formaldehyde in phosphate-buffered saline, demineralized with 0.5 M EDTA, and embedded in paraffin. Sections were stained with hematoxylin-eosin and Alcian blue. Images were taken with the SZ61 microscope (Olympus) equipped with the XZ-1 digital camera (Olympus). The longitudinal length of bone, which was defined as the length between proximal and distal articular cartilage, was measured using ImageJ (NIH).
# [1] = in vivo; cited from earlier work
# FGF2-treated RCS cells [2] = assay: Alcian blue staining of FGF2-treated RCS cells; assay type: cell-based, rat; conditions: 5 ng/ml FGF2, 72 hours; meclizine 10 μM or 20 μM, CNP 0.2 μM
# Procedure: For Alcian blue staining, growing RCS cells in 12-well plates were added with 5 ng/ml FGF2 and also with either 10 μM meclizine or 0.2 μM CNP (Calbiochem). After 72 hours, cells were fixed with methanol for 30 minutes at −20° C., and stained overnight with 0.5% Alcian Blue 8 GX (Sigma) in 1 N HCl. For quantitative analyses, Alcian blue-stained cells were lysed in 200 μl of 6 M guanidine HCl for 6 hours at room temperature (Reference 28). The optical density of the extracted dye was measured at 610 nm using PowerScan 4 (DS Pharma Biomedical).
# [3] = system: ATDC5 cells expressing FGFR3-G380R (ACH); assay: Micromass culture of ATDC5 cells expressing FGFR3-G380R; assay type: cell-based, mouse; conditions: six days, 20 μM meclizine
# [4] = system: Mmp10, Mmp13, and Adamts1 mRNA; assay: Real-time RT-PCR of matrix proteinases in FGF2-treated RCS cells; assay type: cell-based, rat; conditions: FGF2 four hours; 20 μM meclizine or 0.2 μM CNP
# Procedure: Total RNA was isolated from FGF2-treated RCS cells in the presence of 20 μM of meclizine or 0.2 μM of CNP using Trizol. The first strand cDNA was synthesized with ReverTra Ace (Toyobo). We quantified mRNA expression of matrix proteinases (Mmp10, Mmp13, and Adamts1) using LightCycler 480 Real-Time PCR (Roche) and SYBR Green (Takara). The mRNA levels were normalized for that of Gapdh.
# Fgfr3^ach mice = conditions: continuous intravenous infusion; cited from earlier work
# [5] = system: HCS-2/8 cells expressing FGFR3-K650E (TD); assay: Growth assay of HCS-2/8 cells expressing FGFR3-K650E; assay type: cell-based, human; conditions: for integrated intensities of Venus signals: K650E-expressing HCS-2/8, 72 hours
# From the text: (§1) The pRK7-FGFR3-WT, -K650E, and -K650M vectors expressing wild-type and mutant FGFR3 (Reference 29) were kindly provided by Dr. Pavel Krejci (Medical Genetics Institute, Cedars-Sinai Medical Center, LA). The pRK7-FGFR3-G380R was constructed by the QuikChange site-directed mutagenesis kit (Stratagene). The wild-type and mutant FGFR3 cDNAs were excised from pRK7-FGFR3 vectors by double digestion with HindIII and BamHI. The fragments were cloned into the lentivirus vector, CSII-CMV-MCS-IRES2-Venus using the NheI and BamHI sites. CSII-CMV-MCS-IRES2-Venus was kindly provided by Dr. Hiroyuki Miyoshi (Riken BioResource Center, Tsukuba, Japan.). The HindIII site of the insert and the NheI site of the vector were blunted using Quick Blunting Kit (New England Biolabs) before ligation. HEK293 cells were plated in 150-mm dishes the day before transfection. We introduced the pLP1, pLP2, pLP/VSVG plasmids (ViraPower Packaging Mix, Invitrogen), and the CSII-CMV-MCS-IRES2-Venus vector into HEK293 cells with Lipofectamine 2000 (Invitrogen) according to the manufacturer's protocols. At 48 hours after transfection, we filtered the media containing the virus particles using the Millex-HV 0.45 μm PVDF filters (Millex) and purified lentivirus using two steps of ultracentrifugation (Beckman Coulter). The lentivirus was added to the medium of HCS-2/8 or ATDC5 cells. After 48 hours, we confirmed that more than 90% of cells were positive for Venus signals.
# HCS-2/8 (Reference 31) cells were seeded in 96-well tissue culture plates. HCS-2/8 cells were then infected with lentivirus expressing either FGFR3-WT, -K650E, or -K650M. After 48 hours, the numbers of cells were estimated by MTS assay. In addition, ˜1×10^5 HCS-2/8 cells in a 12-well tissue plate were introduced with lentivirus expressing FGFR3-K650E. After 72 hours, the fluorescence intensity of the Venus protein was quantified by the ArrayScan VTI HCS Reader (Thermo Scientific).
# FGFR3 signaling = conditions: cited from earlier work
# [6] = system: RCS cells expressing caRAF; assay: MTS growth assay of RCS cells expressing constitutively active RAF; assay type: cell-based, rat
# Procedure: (§2) RCS cells, which were kindly provided from Dr. Pavel Krejci (Medical Genetics Institute, Cedars-Sinai Medical Center, LA), were cultured in Dulbecco's Modified Eagle's Medium (DMEM, Invitrogen) supplemented with 10% fetal bovine serum (FBS, Thermo Scientific) (Reference 14). For the RCS growth arrest assays, ˜5×10^3 cells were seeded in 96-well culture plates (Falcon) and incubated for 48 hours in the presence of 10 μM of 1,186 FDA-approved chemical compounds (Prestwick Chemical) and 5 ng/ml of FGF2 (R&D Systems). Cell proliferation was quantified by MTS assay (Cell 96 AQueus One Solution Cell Proliferation Assay, Promega) according to the manufacturer's instructions.
# (§3) Clones that express constitutively active mutants in the MAPK/ERK pathway, pcDNA4Myc-ERK2(PD), pcDNA3HA-MEK1(DD), and pcDNA3Flag-C-rafΔN (Reference 30), were kindly provided by Dr. Mutsuhiro Takekawa (Medical Science Institute, Tokyo University, Japan). The inserts were digested with BamHI and XhoI, and were cloned into the CSII-CMV-MCS-IRES2-Venus at the BamHI sites after blunting all digested ends. Lentivirus particles were generated as described above and were applied to RCS cells.
# [7] = system: HCS-2/8 cells expressing FGFR3-K650M (SADDAN); assay: Growth assay of HCS-2/8 cells expressing FGFR3-K650M; assay type: cell-based, human; conditions: 20 μM
# From the text: as §1, with “At 48 hours after transfection, we filtered the media containing the virus particles using the Millex-HV 0.45 μm PVDF filters (Millex) and purified lentivirus using two steps of ultracentrifugation (Beckman Coulter). The lentivirus was added to the medium of HCS-2/8 or ATDC5 cells. After 48 hours, we confirmed that more than 90% of cells were positive for Venus signals.” left out
# HCS-2/8 (Reference 31) cells were seeded in 96-well tissue culture plates. […] After 72 hours, the fluorescence intensity of the Venus protein was quantified by the ArrayScan VTI HCS Reader (Thermo Scientific).
# [8] = system: RCS cells expressing caERK; assay: MTS growth assay of RCS cells expressing constitutively active ERK; assay type: cell-based, rat
# Procedure: as §2, §3
# [9] = system: ischemic injury in the brain and heart; conditions: cited from earlier work
# ERK1/2 phosphorylation = assay: Western blotting of ERK phosphorylation in FGF2-treated RCS cells; assay type: cell-based, rat; conditions: 20 μM pretreatment 30 min, 5 ng/ml FGF2 5 min
# Procedure: (§4) RCS cells were treated with 20 μM meclizine for 30 min before adding 5 ng/ml FGF2 (“Vehicle” is no treatment group). After 5 min, cells were lysed in the ice-cold RIPA Lysis Buffer (Santa Cruz) supplemented with proteinase inhibitors. Whole cell lysates were separated on SDS-PAGE and transferred to a nitrocellulose membrane. The phosphorylation levels of molecules in the MAPK pathway were determined by Western blotting using the following antibodies: ERK1/2, phospho-ERK1/2(Thr^202/Tyr^204), MEK1/2, and phospho-MEK1/2(Ser^217/221) (Cell Signaling).
# FGF2-treated RCS cells [10] = assay: RCS growth arrest assay (MTS); assay type: cell-based, rat; conditions: for cell toxicity in RCS cells: 50 μM
# Procedure: as §2
# normal mouse [11] = assay: Internal administration to normal pregnant mouse, neonatal mouse evaluated; assay type: in vivo; conditions: in feed to pregnant mouse from day 14 of pregnancy, day 5 after birth
# Procedure: (§5) Meclizine was internally administered to a normal pregnant mouse from day 14 of pregnancy (2 mg of meclizine is contained in 5 g of feed), and the body length and extremity length of the neonatal mouse on day 5 after birth were evaluated. On the other hand, meclizine was internally administered to a normal mouse from week 2 after birth, and the mouse was evaluated in the same manner on week 5.
# MEK1/2 phosphorylation = assay: Western blotting of MEK phosphorylation in FGF2-treated RCS cells; assay type: cell-based, rat; conditions: 20 μM pretreatment 30 min, 5 ng/ml FGF2 5 min
# Procedure: as §4
# normal mouse [12] = assay: Internal administration to normal mouse from week 2 after birth; assay type: in vivo; conditions: administered from week 2 after birth, evaluated week 5
# Procedure: as §5
# [13] = system: RCS cells expressing caMEK; assay: MTS growth assay of RCS cells expressing constitutively active MEK; assay type: cell-based, rat
# Procedure: as §2, §3
# Fgfr3^Y367C/+ mice = conditions: subcutaneous administration; cited from earlier work
compound,measurement,setting,value
"CNP: C-type natriuretic peptide, potent antagonist of FGFR3 signaling, used as positive control",longitudinal length of embryonic tibiae with FGF2,embryonic tibiae,significantly attenuated FGF2-mediated growth inhibition
same,half-life,[1],very short
same,Alcian blue staining and chondrocyte-like cell shape,FGF2-treated RCS cells [2],approximated that of FGF2-negative cells
same,"levels of glycosaminoglycans (Alcian blue, 610 nm absorbance)",[3],increased the Alcian blue staining
same,"expressions of Mmp10, Mmp13, and Adamts1",[4],significantly suppressed
same,dwarfism of Fgfr3^ach mice,Fgfr3^ach mice,successfully normalized the dwarfism
same,integrated intensities of Venus signals,[5],increased the integrated Venus signal intensities
O=C(Nc1cc(C(=O)Nc2ccc(S(=O)(=O)O)cc2S(=O)(=O)O)cc(C(=O)Nc2ccc(S(=O)(=O)O)cc2S(=O)(=O)O)c1)Nc1cc(C(=O)Nc2ccc(S(=O)(=O)O)cc2S(=O)(=O)O)cc(C(=O)Nc2ccc(S(=O)(=O)O)cc2S(=O)(=O)O)c1 [NF449],FGFR3 signaling in RCS chondrocytes,FGFR3 signaling,inhibits FGFR3 signaling
"Cc1cccc(CN2CCN(C(c3ccccc3)c3ccc(Cl)cc3)CC2)c1 (stereo not shown) [meclizine, 1-[(4-chlorophenyl)phenylmethyl]-4-[(3-methylphenyl)methyl]piperazine]",longitudinal length of embryonic tibiae with FGF2,embryonic tibiae,significantly attenuated FGF2-mediated growth inhibition
same,length of tibia without FGF2 treatment,"embryonic tibiae; without FGF2, day 6, 20 μM",increased the length of tibia
same,caRAF-mediated growth inhibition,[6],rescued
same,cellular toxicity in K650M-expressing HCS-2/8,[7],without apparent cellular toxicity
same,growth arrest of K650M-expressing HCS-2/8,"[7]; 48 hours, MTS assay",partially but significantly rescued the growth arrest
same,caERK-mediated growth inhibition,[8],had no effect
same,Alcian blue staining and chondrocyte-like cell shape,FGF2-treated RCS cells [2],restored
same,"levels of glycosaminoglycans (Alcian blue, 610 nm absorbance)",[3],significantly increased the levels of glycosaminoglycans
same,"expressions of Mmp10, Mmp13, and Adamts1",[4],significantly suppressed
same,cytoprotective activity against ischemic injury,[9],cytoprotective activities
same,FGF2-mediated ERK1/2 phosphorylation,ERK1/2 phosphorylation,attenuated
same,"RCS proliferation, concentration dependence","FGF2-treated RCS cells [10]; 0, 1, 2, 5, 10, 20, and 50 μM, 5 ng/ml FGF2, 48 hours, MTS assay",dose-dependent increases
same,increase in RCS proliferation,"FGF2-treated RCS cells [10]; 10 μM compound, 5 ng/ml FGF2, 48 hours, MTS assay",≥ 1.4 fold
same,cell toxicity in RCS cells,FGF2-treated RCS cells [10],cell toxicity was evident
same,cell toxicity in RCS cells,FGF2-treated RCS cells [10]; listed as Meclizine,slight toxicity
same,body length of neonatal mouse,normal mouse [11],increase
same,length of superior and inferior limbs of neonatal mouse,normal mouse [11],increase
same,MEK1/2 phosphorylation,MEK1/2 phosphorylation,remained unchanged
same,body length,normal mouse [12],increase
same,tail length,normal mouse [12],increase
same,cellular toxicity in K650E-expressing HCS-2/8,[5]; 20 μM,without apparent cellular toxicity
same,growth arrest of K650E-expressing HCS-2/8,"[5]; 20 μM, 48 hours, MTS assay",partially but significantly rescued the growth arrest
same,integrated intensities of Venus signals,[5],significantly increased
same,caMEK-mediated growth inhibition,[13],rescued
"BMN111: CNP analog with extended plasma half-life (PGQEHPNARKYKGANKKGLSKGCFGLKLDRIGSMSGLGC; chains of the INN, looked up)",plasma half-life,[1],extended
same,bone growth in Fgfr3^Y367C/+ mice,Fgfr3^Y367C/+ mice,significant recovery of bone growth

# Source: patent US20150216860A1, “THERAPEUTIC AGENT FOR SYSTEMIC BONE DISEASE AND USE THEREOF” (NATIONAL UNIVERSITY CORPORATION NAGOYA INIVERSITY, priority 2013, published 2015)
